Patent US10913745B2, “Octahydro-pyrrolo[3,4-c]-pyrrole derivatives and analogs thereof as autotaxin inhibitors” (Hoffmann-La Roche Inc., priority 2013, dated 2021)
pIC50: −log10 of the molar value.

target: ATX (human His-tagged) (Homo sapiens (Human), UniProt Q13822); assay: Human ATX enzyme inhibition assay (fluorescence quenching, MR121 substrate); assay type: biochemical; conditions: MR121 substrate 1 μM, ATX 30 nM final, 30° C.
Experimental: Human ATX Enzyme Inhibition Assay
ATX inhibition was measured by a fluorescence quenching assay using a specifically labeled substrate analogue (MR121 substrate). To obtain this MR121 substrate, BOC and TBS protected 6-amino-hexanoic acid (R)-3-({2-[3-(2-{2-[2-(2-amino-ethoxy)-ethoxy]-ethoxy}-ethoxy)-propionylamino]-ethoxy}-hydroxy-phosphoryloxy)-2-hydroxy-propyl ester (Ferguson et al., Org Lett 2006, 8 (10), 2023) was labeled with MR121 fluorophore (CAS 185308-24-1, 1-(3-carboxypropyl)-11-ethyl-1,2,3,4,8,9,10,11-octahydro-dipyrido[3,2-b:2′,3′-i]phenoxazin-13-ium) on the free amine of the ethanolamine side and then, after deprotection, subsequently with tryptophan on the side of the aminohexanoic acid. Assay working solutions were made as follows: Assay buffer (50 mM Tris-HCl, 140 mM NaCl, 5 mM KCl, 1 mM CaCl2, 1 mM MgCl2, 0.01% Triton-X-100, pH 8.0; ATX solution: ATX (human His-tagged) stock solution (1.08 mg/mL in 20 mM bicine, pH 8.5, 0.15 M NaCl, 10% glycerol, 0.3% CHAPS, 0.02% NaN3), diluted to 1.4-2.5× final concentration in assay buffer; MR121 substrate solution: MR121 substrate stock solution (800 μM MR121 substrate in DMSO), diluted to 2-5× final concentration in assay buffer. Test compounds (10 mM stock in DMSO, 8 μL) were obtained in 384 well sample plates (Corning Costar #3655) and diluted with 8 μL DMSO. Row-wise serial dilutions were made by transferring 8 μL cpd solution to the next row up to row O. The compound and control solutions were mixed five times and 2 μL were transferred to 384 well assay plates (Corning Costar #3702). Then, 15 μL of 41.7 nM ATX solution was added (30 nM final concentration), mixed five times and then incubated for 15 minutes at 30° C. 10 μL of MR121 substrate solution was added (1 μM final concentration), mixed 30 times and then incubated for 15 minutes at 30° C.

| pIC50 | SMILES |
| --- | --- |
| 8.15 | NS(=O)(=O)c1ccc(C(=O)N2C[C@H]3CCN(C(=O)OCc4cc(Cl)cc(Cl)c4)C[C@@H]3C2)cc1 (racemic) [Example 1.03, trans-3,5-dichlorobenzyl 2-(4-sulfamoylbenzoyl)hexahydro-1H-pyrrolo[3,4-c]pyridine-5(6H)-carboxylate] |
| 8.40 | NS(=O)(=O)c1ccc(C(=O)N2C[C@H]3CCN(C(=O)OCc4cc(Cl)cc(Cl)c4)C[C@@H]3C2)cc1 (single isomer, unassigned) [Example 9A, (−)-trans-3,5-Dichlorobenzyl 2-(4-sulfamoylbenzoyl)hexahydro-1H-pyrrolo[3,4-c]pyridine-5(6H)-carboxylate] |
| 8.30 | NS(=O)(=O)c1ccc(C(=O)N2C[C@H]3CCN(C(=O)OCc4cc(Cl)cc(Cl)c4)C[C@@H]3C2)cc1 (single isomer, unassigned) [Example 9B, (+)-trans-3,5-dichlorobenzyl 2-(4-sulfamoylbenzoyl)hexahydro-1H-pyrrolo[3,4-c]pyridine-5(6H)-carboxylate] |
| 5.94 | CNS(=O)(=O)c1ccc(C(=O)N2C[C@H]3CN(C(=O)OCc4cc(Cl)cc(Cl)c4)C[C@H]3C2)cc1 [Example 1, (3aR,6aS)-3,5-Dichlorobenzyl 5-(4-(N-methylsulfamoyl)benzoyl)hexahydropyrrolo[3,4-c]pyrrole-2(1H)-carboxylate] |
| 6.53 | O=C(OCc1cc(Cl)cc(Cl)c1)N1C[C@@H]2CN(C(=O)c3ccc(O)cn3)C[C@@H]2C1 [Example 1.01, (3aR,6aS)-3,5-dichlorobenzyl 5-(5-hydroxypicolinoyl)hexahydropyrrolo[3,4-c]pyrrole-2(1H)-carboxylate] |
| 6.35 | O=C(OCc1cc(Cl)cc(Cl)c1)N1C[C@@H]2CN(C(=O)c3ccc(O)cc3)C[C@@H]2C1 [Example 1.02, (3aR,6aS)-3,5-dichlorobenzyl 5-(4-hydroxybenzoyl)hexahydropyrrolo[3,4-c]pyrrole-2(1H)-carboxylate] |
| 8.10 | NS(=O)(=O)c1ccc(C(=O)N2C[C@H]3CN(C(=O)OCc4cc(Cl)cc(Cl)c4)C[C@H]3C2)s1 [Example 1.04, (3aR,6aS)-3,5-dichlorobenzyl 5-(5-sulfamoylthiophene-2-carbonyl)hexahydropyrrolo[3,4-c]pyrrole-2(1H)-carboxylate] |
| 8.40 | NS(=O)(=O)c1ccc(C(=O)N2C[C@H]3CN(C(=O)OCc4cc(Cl)cc(Cl)c4)C[C@H]3C2)cc1 [Example 1.05, (3aR,6aS)-3,5-dichlorobenzyl 5-(4-sulfamoylbenzoyl)hexahydropyrrolo[3,4-c]pyrrole-2(1H)-carboxylate] |
| 6.59 | Nc1ccc(C(=O)N2C[C@H]3CN(C(=O)OCc4cc(Cl)cc(Cl)c4)C[C@H]3C2)cc1 [Example 1.06, (3aR,6aS)-3,5-dichlorobenzyl 5-(4-aminobenzoyl)hexahydropyrrolo[3,4-c]pyrrole-2(1H)-carboxylate] |
| 5.21 | Nc1ccc(C(=O)N2C[C@H]3CN(C(=O)OCc4cc(Cl)cc(Cl)c4)C[C@H]3C2)nc1 [Example 1.07, (3aR,6aS)-3,5-dichlorobenzyl 5-(5-aminopicolinoyl)hexahydropyrrolo[3,4-c]pyrrole-2(1H)-carboxylate] |
| 5.92 | N#Cc1ccc(C(=O)N2C[C@H]3CN(C(=O)OCc4cc(Cl)cc(Cl)c4)C[C@H]3C2)cc1 [Example 1.08, (3aR,6aS)-3,5-dichlorobenzyl 5-(4-cyanobenzoyl)hexahydropyrrolo[3,4-c]pyrrole-2(1H)-carboxylate] |
| 6.93 | COC(=O)c1ccc(C(=O)N2C[C@H]3CN(C(=O)OCc4cc(Cl)cc(Cl)c4)C[C@H]3C2)cc1 [Example 1.09, (3aR,6aS)-3,5-dichlorobenzyl 5-(4-(methoxycarbonyl)benzoyl)hexahydropyrrolo[3,4-c]pyrrole-2(1H)-carboxylate] |
| 8.70 | NS(=O)(=O)c1ccc(C(=O)N2C[C@H]3CCN(C(=O)/C=C/c4ccc(OC(F)(F)F)cc4)CC[C@H]3C2)cc1 [Example 1.10, 4-{(3aS,8aR)-6-[(E)-3-(4-trifluoromethoxy-phenyl)-acryloyl]-octahydro-pyrrolo[3,4-d]azepine-2-carbonyl}-benzenesulfonamide] |
| 9.00 | NS(=O)(=O)c1ccc(C(=O)N2C[C@H]3CN(C(=O)OCc4ccc(OC(F)(F)F)cc4)C[C@@H]3C2)cc1F [Example 1.11, (3aS,6aS)-5-(3-fluoro-4-sulfamoyl-benzoyl)-hexahydro-pyrrolo[3,4-c]pyrrole-2-carboxylic acid 4-trifluoromethoxy-benzyl ester] |
| 6.36 | O=C(OCc1ccc(OC(F)(F)F)cc1)N1C[C@@H]2CN(C(=O)c3ccc(=O)[nH]c3)C[C@H]2C1 [Example 1.12, (3aS,6aS)-5-(6-oxo-1,6-dihydro-pyridine-3-carbonyl)-hexahydro-pyrrolo[3,4-c]pyrrole-2-carboxylic acid 4-trifluoromethoxy-benzyl ester] |
| 9.00 | NS(=O)(=O)c1ccc(C(=O)N2C[C@H]3CN(C(=O)OCc4ccc(OC(F)(F)F)cc4)C[C@@H]3C2)nc1 [Example 1.13, (3aS,6aS)-5-(5-sulfamoyl-pyridine-2-carbonyl)-hexahydro-pyrrolo[3,4-c]pyrrole-2-carboxylic acid 4-trifluoromethoxy-benzyl ester] |
| 7.19 | Cn1cc(S(N)(=O)=O)cc1C(=O)N1C[C@H]2CN(C(=O)OCc3ccc(OC(F)(F)F)cc3)C[C@@H]2C1 [Example 1.14, (3 aS,6aS)-5-(1-methyl-4-sulfamoyl-1H-pyrrole-2-carbonyl)-hexahydro-pyrrolo[3,4-c]pyrrole-2-carboxylic acid 4-trifluoromethoxy-benzyl ester] |
| 7.23 | Cn1c(C(=O)N2C[C@H]3CN(C(=O)OCc4ccc(OC(F)(F)F)cc4)C[C@@H]3C2)ccc1S(N)(=O)=O [Example 1.15, (3 aS,6aS)-5-(1-methyl-5-sulfamoyl-1H-pyrrole-2-carbonyl)-hexahydro-pyrrolo[3,4-c]pyrrole-2-carboxylic acid 4-trifluoromethoxy-benzyl ester] |
| 7.60 | O=C(OCc1ccc(OC(F)(F)F)cc1)N1C[C@@H]2CN(C(=O)c3ccc(O)cn3)C[C@H]2C1 [Example 1.17, (3aS,6aS)-5-(5-hydroxy-pyridine-2-carbonyl)-hexahydro-pyrrolo[3,4-c]pyrrole-2-carboxylic acid 4-trifluoromethoxy benzyl ester] |
| 7.89 | O=C(OCc1ccc(OC(F)(F)F)cc1)N1C[C@@H]2CN(C(=O)c3ccc(O)cc3)C[C@H]2C1 [Example 1.18, (3aS,6aS)-5-(4-hydroxy-benzoyl)-hexahydro-pyrrolo[3,4-c]pyrrole-2-carboxylic acid 4-trifluoromethoxy-benzyl ester] |
| 8.40 | NS(=O)(=O)c1ccc(C(=O)N2C[C@H]3CN(C(=O)OCc4ccc(OC(F)(F)F)cc4)C[C@@H]3C2)c(F)c1 [Example 1.19, (3 aS,6aS)-5-(2-fluoro-4-sulfamoyl-benzoyl)-hexahydro-pyrrolo[3,4-c]pyrrole-2-carboxylic acid 4-trifluoromethoxy-benzyl ester] |
| 7.72 | NS(=O)(=O)c1ccc(C(=O)N2C[C@H]3CN(C(=O)CCc4ccc(OC(F)(F)F)cc4)C[C@@H]3C2)cn1 [Example 1.20, 5-{(3 aR,6aR)-5-[3-(4-trifluoromethoxy-phenyl)-propionyl]-hexahydro-pyrrolo[3,4-c]pyrrole-2-carbonyl}-pyridine-2-sulfonic acid amide] |
| 6.93 | CCOc1cc(C(=O)N2C[C@@H]3CN(C(=O)c4ccc(S(N)(=O)=O)nc4)C[C@H]3C2)nc2ccccc12 [Example 1.21, 5-((3 aS,6aS)-5-(4-ethoxyquinoline-2-carbonyl)octahydropyrrolo[3,4-c]pyrrole-2-carbonyl)pyridine-2-sulfonamide] |
| 8.15 | CC(C)(C)C(=O)Nc1cc(C#N)ccc1COC(=O)N1C[C@@H]2CN(C(=O)c3ccc(S(N)(=O)=O)c(F)c3)C[C@H]2C1 [Example 1.22, (3aS,6aS)-5-(3-fluoro-4-sulfamoyl-benzoyl)-hexahydro-pyrrolo[3,4-c]pyrrole-2-carboxylic acid 4-cyano-2-(2,2-dimethyl-propionylamino)-benzyl ester] |
| 8.40 | CC(C)(C)C(=O)Nc1cc(C#N)ccc1COC(=O)N1C[C@@H]2CN(C(=O)c3ccc(S(N)(=O)=O)nc3)C[C@H]2C1 [Example 1.23, (3aS,6aS)-5-(6-sulfamoyl-pyridine-3-carbonyl)-hexahydro-pyrrolo[3,4-c]pyrrole-2-carboxylic acid 4-cyano-2-(2,2-dimethyl-propionylamino)-benzyl ester] |
